A short description of the series: Cyclic voltammetry of electrolyte solution. Type of series: physicochemical. The settings on record: for Number of reaction electrons: reversibly usable electrons. The text has this:
For analysis of electrochemical properties of an electrolyte solution, cyclic voltammetry (CV) was used. The cyclic voltammetry is an electrochemical measurement method which is commonly used a lot, and is a method of obtaining a current-potential curve by scanning an electrode potential of a working electrode with a triangular wave at a constant speed. A method of recording a current flowing when potential is changed in proportion to time as a potential-current curve is called a potential sweep method, and when the potential is repeatedly applied, it is called cyclic voltammetry. The cyclic voltammetry allows qualitative understanding of a reaction occurring on an electrode surface such as potential at the reaction occurs, reaction speed, and reactivity of a reaction product, and is widely used in the electrochemical field.
During cyclic voltammetry measurement, a potential scanning speed was applied at 10 to 300 mV/s, and the measurement results are shown in FIGS. 1 to 3.

The mark [1] stands for this setting: 0.01 M in 1 M Na2SO4, glassy carbon working electrode.

In the case of `C[n+]1ccc(-c2cc[n+](C)cc2)cc1.O.[Cl-].[Cl-]` [Comparative Example 1, methyl viologen dichloride hydrate], under setting [1], the “Negative electrode one-electron reaction potential” value is given as −0.54 V vs. NHE. For the same compound, where the note is “FIG. 1, text”, the “Reduction and oxidation currents, negative electrode area, first electron reaction” value is “around −0.54 V”; the “Reduction and oxidation currents, negative electrode area, second electron reaction” value is ~−0.75 V. Moreover, for the setting “cyclic voltammetry curves”, the “Reversibility of second electron (two-electron) reaction in negative electrode area” value (shortened to “Reversibility of second electron”) is given as “irreversible”.

For the compound `C[n+]1ccc(-c2cc[n+](-c3cc(O)ccc3O)cc2)cc1` [Comparative Example 2], the “Number of reaction electrons” value is listed as 1. In addition, under setting [1], the “Negative electrode one-electron reaction potential” value is −0.34 V vs. NHE and the “Positive electrode reaction potential” value is listed as 0.59 V vs. NHE. For the same compound, for the setting “FIG. 1, text”, the “Reduction and oxidation currents, negative electrode area, first electron reaction” value is “around −0.34 V”; the “Reduction and oxidation currents, negative electrode area, second electron reaction” value is given as ~−0.65 V; the “Two-electron reduction and oxidation currents derived from hydroquinone, positive electrode area” value was found to be 0.59 V. For the same compound, the “Reversibility of second electron” value (cyclic voltammetry curves) is “did not reach a target level”.

Regarding `C[N+](C)(C)CCC[n+]1ccc(-c2cc[n+](-c3cc(O)ccc3O)cc2)cc1` [Example 1], the “Number of reaction electrons” value amounted to 2. Besides, under setting [1], the “Negative electrode one-electron reaction potential” value is −0.48 V vs. NHE, the “Negative electrode two-electron reaction potential” value is given as −0.80 V vs. NHE and the “Positive electrode reaction potential” value is listed as 0.46 V vs. NHE. Also, the “Reversibility of second electron” value (cyclic voltammetry curves) is on record as “showed a reversible shape”. Moreover, the “Reversibility in positive electrode area” value (cyclic voltammetry curves, 100 mV s^−1, FIG. 3) is “reversible behavior was shown”.

For the origin of these results see US20240186515A1, “ELECTROLYTE SOLUTION FOR REDOX FLOW BATTERY INCLUDING ORGANIC ACTIVE MATERIAL AND REDOX FLOW BATTERY USING THE SAME” (priority 2022, published 2024).
